Experimental data as given in patent publication US20120178085A1, “METHOD FOR EVALUATION OF CULTURED CELLS, AND METHOD FOR SCREENING OF BIOMARKER” (priority 2009, published 2012).

Tested on: Human liver cancer-derived cell line (HuH-7)
Test: miRNA released into serum-free culture medium from HuH-7 cells treated with carbon tetrachloride (real-time PCR)
Type: cell-based
Conditions: carbon tetrachloride 0-1000 μM, 7-day culture in serum-free maintenance medium, FIG. 2
Procedure: Human liver cancer-derived cell line (HuH-7, purchased from ATCC) was seeded in a culture vessel of 12-well culture plate at a cell density of 20000 cells/cm^2, and cells were cultured for 7 days in a serum-free maintenance medium containing carbon tetrachloride, which was known to injure liver tissue and liver cells, at a relatively low concentration of 0-1000 μM used in World J Gastroenterol. 2008 Jun. 21; 14(23):3693-709. The maintenance medium used herein was the same as one used in Example 1.
Each culture medium was collected after 7-day culturing, and cells were removed by filtration through a 0.22 μm filter to obtain samples.
cDNA samples of Poly(A)miRNA samples were obtained in the same manner as in Example 1.
Real-time PCR was carried out using Platinum SYBR Green (produced by Invitrogen) to measure hsa-miR-21, hsa-miR-122, hsa-miR-451 and hsa-miR-16 contained in the cDNA samples. The primers used were as follows.

Compound: ClC(Cl)(Cl)Cl [carbon tetrachloride]
- amount of miRNA released from cells into culture medium (hsa-miR-21, hsa-miR-122, hsa-miR-451, hsa-miR-16): increased
